Reference: patent publication US8153689B2, “Pleuromutilin derivatives for the treatment of diseases mediated by microbes” (Nabriva Therapeutics AG, priority 2007, dated 2012)

System: primary human hepatocytes
Experiment: Metabolic stability in cryopreserved primary human hepatocytes
Type: in vitro ADME
Settings: 4 h incubation with human hepatocytes, compound concentration 5 μg/mL, 37° C., LC/MS
Method: The metabolic stability for compounds of the present invention was determined by using cryopreserved primary human hepatocytes. 1×10^6 cells/mL were incubated in the absence and the presence of 5 and 25 μg/mL of the test compounds at 37° C., 5% CO2 for 4 hours. To evaluate the in vitro degradation under assay conditions, a sample of each test compound was incubated also in the absence of hepatocytes. The incubation was stopped by freezing the reaction mixture. After ultrafiltration and washing of the filter with acetonitrile, the sample solution was analyzed for parent compound disappearance or metabolite appearance using LC/MS (ion trap). The metabolic stability value corresponds to the detected parent compound in % after incubation.

## C=CC1(C)CC(OC(=O)CSC2CC(N)CCC2O)C2(C)C(C)CCC3(CCC(=O)C32)C(C)C1O.Cl (mixture of isomers) [Example 2, 14-O-{[(1R, 2R, 5S)-5-Amino-2-hydroxy-cyclohexylsulfanyl]-acetyl}-mutilin hydrochloride+(1S, 2S, 5R)diastereomer hydrochloride]
  metabolic stability value: detected parent compound in % after incubation: 66%

## 14-O-{[(1R, 3R)-3-Amino-cyclohexylsulfanyl]-acetyl}-mutilin hydrochloride and the (1S, 3S)diastereomer hydrochloride thereof
  metabolic stability value: detected parent compound in % after incubation: 24%
